Experimental data from patent US5807983A, “GNRH antagonist betides” (The Salk Institute for Biological Studies, priority 1996, dated 1998).
Non-standard residues stand in square brackets, D forms with d. Residues, ends and D or L forms follow the SMILES beside them. dPhe(4-NH2) = Nc1ccc(C[C@@H](N)C(=O)O)cc1; dPhe(4-Cl) = N[C@H](Cc1ccc(Cl)cc1)C(=O)O; Phe(4-NH2) = Nc1ccc(C[C@H](N)C(=O)O)cc1; d2Nal = N[C@H](Cc1ccc2ccccc2c1)C(=O)O; Lys(iPr) = CC(C)NCCCC[C@H](N)C(=O)O; d3Pal = N[C@H](Cc1cccnc1)C(=O)O

Tests used:
[1] = tested on: ovulation in mature female Sprague-Dawley rats; test: standard in vivo rat anti-ovulation test; details: injected in bacteriostatic water at about noon on the day of proestrus
Protocol: The betide is assayed in vivo to determine its effectiveness to prevent ovulation in female rats. Inthis test, a specified number of mature female Sprague-Dawley rats, e.g. five to ten, each having a body weight from 225 to 250 grams, are injected with a specified microgram dosage of the betide in bacteriostatic water at about noon on the day of proestrus. Proestrus is the […]. A separate female rat group is used as a control to which the peptide is not administered. Each of the control female rats ovulates on the evening of proestrus; the number of the rats treated which ovulate is recorded.

[2] = hydrophilicity by RP-HPLC retention; type: physicochemical; details: for hydrophilicity compared to Acyline: RP-HPLC

Compound | anti-ovulatory activity: rats ovulating out of rats treated ([1]; dosage 2.5 μg) | anti-ovulatory activity: rats ovulating out of rats treated ([1]; dosage 5 μg) | anti-ovulatory activity: rats ovulating out of rats treated ([1]; dosage 1 μg) | further results
CC(=O)Nc1ccc(C[C@H](NC(=O)[C@H](CO)NC(=O)C(NC(=O)c2ccncc2)NC(=O)[C@@H](Cc2ccc(Cl)cc2)NC(=O)[C@@H](Cc2ccc3ccccc3c2)NC(C)=O)C(=O)N[C@H](Cc2ccc(NC(C)=O)cc2)C(=O)N[C@@H](CC(C)C)C(=O)N[C@@H](CCCCNC(C)C)C(=O)N2CCC[C@H]2C(=O)N[C@H](C)C(N)=O)cc1 (single isomer, unassigned) [Betide No. 1A first isomer, Ac-β-D-2Nal-D-4Cpa-γ-(4-pyridyl)D/L-amidoGly-Ser-Aph(acetyl)-D- Aph(acetyl)-Leu-Lys(isopropyl)-Pro-D-Ala-NH2] | only the second isomer was bioactive | – | – | anti-ovulatory activity: rats ovulating out of rats treated ([1]; dosage 10 μg): 3 out of 7; hydrophilicity compared to Acyline [2]: more hydrophilic than Acyline
CC(=O)Nc1ccc(C[C@H](NC(=O)[C@H](CO)NC(=O)C(NC(=O)c2ccncc2)NC(=O)[C@@H](Cc2ccc(Cl)cc2)NC(=O)[C@@H](Cc2ccc3ccccc3c2)NC(C)=O)C(=O)N[C@H](Cc2ccc(NC(C)=O)cc2)C(=O)N[C@@H](CC(C)C)C(=O)N[C@@H](CCCCNC(C)C)C(=O)N2CCC[C@H]2C(=O)N[C@H](C)C(N)=O)cc1 (single isomer, unassigned) [Betide No. 1A second isomer, Ac-β-D-2Nal-D-4Cpa-γ-(4-pyridyl)D/L-amidoGly-Ser-Aph(acetyl)-D- Aph(acetyl)-Leu-Lys(isopropyl)-Pro-D-Ala-NH2] | 2 out of 8 | – | – | anti-ovulatory activity: rats ovulating out of rats treated ([1]; dosage 10 μg): 0 out of 8; hydrophilicity compared to Acyline [2]: more hydrophilic than Acyline
CC(=O)Nc1ccc(C[C@H](NC(=O)C(NC(=O)CO)NC(=O)[C@@H](Cc2cccnc2)NC(=O)[C@@H](Cc2ccc(Cl)cc2)NC(=O)[C@@H](Cc2ccc3ccccc3c2)NC(C)=O)C(=O)N[C@H](Cc2ccc(NC(C)=O)cc2)C(=O)N[C@@H](CC(C)C)C(=O)N[C@@H](CCCCNC(C)C)C(=O)N2CCC[C@H]2C(=O)N[C@H](C)C(N)=O)cc1 (single isomer, unassigned) [Betide No. 2A other isomer, Ac-D-2Nal-D-4Cpa-D-3Pal-D/L-Agl(HO-Ac)Aph(Ac)-D-Aph(Ac)-Leu-Lys(isopropyl)-Pro-D-Ala-NH2] | – | 4 out of 8 | – | –
CC(=O)Nc1ccc(C[C@H](NC(=O)C(NC=O)NC(=O)[C@@H](Cc2cccnc2)NC(=O)[C@@H](Cc2ccc(Cl)cc2)NC(=O)[C@@H](Cc2ccc3ccccc3c2)NC(C)=O)C(=O)N[C@H](Cc2ccc(NC(C)=O)cc2)C(=O)N[C@@H](CC(C)C)C(=O)N[C@@H](CCCCNC(C)C)C(=O)N2CCC[C@H]2C(=O)N[C@H](C)C(N)=O)cc1 (single isomer, unassigned) [Betide No. 2B first isomer, Ac-D-2Nal-D-4Cpa-D-3Pal-D/L-Agl(formyl)-Aph(Ac)-D-Aph(Ac)-Leu-Lys(isopropyl)-Pro-D-Ala-NH2] | – | 0/8 | 2 out of 8 | anti-ovulatory activity: rats ovulating out of rats treated ([1]; dosage 0.5 μg): 4 out of 5
CC(=O)Nc1ccc(C[C@H](NC(=O)C(NC=O)NC(=O)[C@@H](Cc2cccnc2)NC(=O)[C@@H](Cc2ccc(Cl)cc2)NC(=O)[C@@H](Cc2ccc3ccccc3c2)NC(C)=O)C(=O)N[C@H](Cc2ccc(NC(C)=O)cc2)C(=O)N[C@@H](CC(C)C)C(=O)N[C@@H](CCCCNC(C)C)C(=O)N2CCC[C@H]2C(=O)N[C@H](C)C(N)=O)cc1 (single isomer, unassigned) [Betide No. 2B other isomer, Ac-D-2Nal-D-4Cpa-D-3Pal-D/L-Agl(formyl)-Aph(Ac)-D-Aph(Ac)-Leu-Lys(isopropyl)-Pro-D-Ala-NH2] | – | 0/8 | 6 out of 8 | –
CC(=O)Nc1ccc(C[C@H](NC(=O)[C@H](CO)NC(=O)[C@@H](Cc2cccnc2)NC(=O)[C@@H](Cc2ccc(Cl)cc2)NC(=O)C(NC(C)=O)N(C)C(=O)c2ccc3ccccc3c2)C(=O)N[C@H](Cc2ccc(NC(C)=O)cc2)C(=O)N[C@@H](CC(C)C)C(=O)N[C@@H](CCCCNC(C)C)C(=O)N2CCC[C@H]2C(=O)N[C@H](C)C(N)=O)cc1 (single isomer, unassigned) [Betide No. 3C first isomer, Ac-D/L-Agl(methyl,2-naphthoyl)-D-4Cpa-D-3Pal-Ser-Aph(acetyl)-D-Aph(acetyl)-Leu-Lys(isopropyl)-Pro-D-Ala-NH2] | fully active | – | 2 out of 8 | –
CC(=O)Nc1ccc(C[C@H](NC(=O)[C@H](CO)NC(=O)[C@@H](Cc2cccnc2)NC(=O)[C@@H](Cc2ccc(Cl)cc2)NC(=O)C(NC(C)=O)N(C)C(=O)c2ccc3ccccc3c2)C(=O)N[C@H](Cc2ccc(NC(C)=O)cc2)C(=O)N[C@@H](CC(C)C)C(=O)N[C@@H](CCCCNC(C)C)C(=O)N2CCC[C@H]2C(=O)N[C@H](C)C(N)=O)cc1 (single isomer, unassigned) [Betide No. 3C second isomer, Ac-D/L-Agl(methyl,2-naphthoyl)-D-4Cpa-D-3Pal-Ser-Aph(acetyl)-D-Aph(acetyl)-Leu-Lys(isopropyl)-Pro-D-Ala-NH2] | – | 6 out of 8 | – | –
CC(=O)Nc1ccc(C[C@H](NC(=O)[C@H](CO)NC(=O)[C@@H](Cc2cccnc2)NC(=O)[C@@H](Cc2ccc(Cl)cc2)NC(=O)[C@@H](Cc2ccc3ccccc3c2)NC(C)=O)C(=O)N[C@H](Cc2ccc(NC(C)=O)cc2)C(=O)N[C@@H](CC(C)C)C(=O)N[C@@H](CCCCNC(C)C)C(=O)N2CCC[C@H]2C(=O)N[C@H](C)C(N)=O)cc1 [Acyline, Ac-D-2Nal-D-4Cpa-D-3Pal-Ser-Aph(Ac)-D-Aph(Ac)-Leu-ILys-Pro-D-Ala-NH2, reference compound] (Ac-[d2Nal][dPhe(4-Cl)][d3Pal]S[Phe(4-NH2)](Ac)[dPhe(4-NH2)](Ac)L[Lys(iPr)]P[dA]-NH2) | – | – | – | RP-HPLC retention (hydrophilicity) ([2]; gradient 40% to 75% Buffer B over 30 minutes, Buffer A TEAP pH 7.3, Buffer B 60% CH3CN and 40% Buffer A): 24.1 min
Ac-D-2Nal-(4Cl)D-Phe-D-3Pal-Ser-(4-acetyl-aminobenzyl)D/L-amidoGly-D-Aph(acetyl)-Leu-Lys(isopropyl)-Pro-D-Ala-NH2 [Betide No. 4] | – | 2 out of 8 | – | –
Ac-D-2Nal-(4Cl)D-Phe-D-3Pal-Ser-Aph(acetyl)-D-Aph(acetyl)-Leu-Lys(isopropyl)-Pro-D/L-Agl(methyl)-NH2 [Example 8B] | 0/8 | – | – | –
Ac-D-2Nal-D-4Cpa-D-3Pal-Ser-Aph(acetyl)-D-Aph(acetyl)-D/L-Agl(isobutyryl)- Lys(isopropyl)-Pro-D-Ala-NH2 [Betide No. 6A] | 0 out of 8 | – | 6 out of 8 | anti-ovulatory activity: rats ovulating out of rats treated ([1]; dosage 10 μg): 0 out of 8
Ac-D-2Nal-D-4Cpa-D-3Pal-Ser-Aph(acetyl)-D-Aph(acetyl)-D/L-Agl(methyl,acetyl)-Lys(isopropyl)-Pro-D-Ala-NH2 [Betide No. 6] | 2 out of 8 | – | – | anti-ovulatory activity: rats ovulating out of rats treated ([1]; dosage 10 μg): 0 out of 8
Ac-D-2Nal-D-4Cpa-D-3Pal-Ser-Aph(acetyl)-D-Aph(acetyl)-Leu-D/L-Agl(guanidinoacetyl)-Pro-D-Ala-NH2 [Betide No. 7B] | 1 out of 7 | 0/4 | 3 out of 4 | –
Ac-D-2Nal-D-Cpa-D-3Pal-Ser-Aph(acetyl)-D-Aph(acetyl)-D/L-Agl(acetyl)-Lys(isopropyl)-Pro-D-Ala-NH2 [Betide No. 6C] | – | – | – | anti-ovulatory activity: rats ovulating out of rats treated ([1]; dosage 0.5 μg): 4 out of 8; anti-ovulatory activity: rats ovulating out of rats treated ([1]; dosage 10 μg): 0 out of 8
Ac-D-2Nal-D-Cpa-D-3Pal-Ser-Aph(acetyl)-D-Aph(acetyl)-D/L-Agl(methyl,isobutyryl)-Lys(isopropyl)-Pro-D-Ala-NH2 [Betide No. 6B] | 0 out of 8 | – | 2 out of 8 | –
Ac-β-D-2Nal-(4Cl)D-Phe-D-3Pal-Ser-(4-acetyl-aminobenzyl,methyl)D/L-amidoGly-D-Aph(acetyl)-Leu-Lys(isopropyl)-Pro-D-D-Ala-NH2 [Betide No. 4A] | 0/8 | – | 5 out of 8 | –
Ac-β-D-2Nal-(4Cl)D-Phe-D-3Pal-Ser-Aph(acetyl)-γ-(4-acetamidophenyl)D/L-amidoGly-Leu-Lys(isopropyl)-Pro-D-Ala-NH2 [Betide No. 5] | 2 out of 8 | 1 out of 8 | – | –
Ac-γ-(2-naphthoyl)amidoGly-4Cl-D-Phe-D-3Pal-Ser-Aph(atz)-D-Aph(atz)- Leu-Lys(isopropyl)-Pro-D-Ala-NH2 [Betide No. 3A first isomer] | 0/8 | – | 5 out of 8 | –
Ac-γ-(2-naphthoyl)amidoGly-4Cl-D-Phe-D-3Pal-Ser-Aph(atz)-D-Aph(atz)- Leu-Lys(isopropyl)-Pro-D-Ala-NH2 [Betide No. 3A second isomer] | 0/3 | – | 4 out of 8 | –
